{"source": "paper PMC10788856", "about": "“Mimicking Nonribosomal Peptides from the Marine Actinomycete Streptomyces sp. H-KF8 Leads to Antimicrobial Peptides” (ACS Infectious Diseases, 2023)", "key": {"S. aureus": {"system": "S. aureus", "test": "microbe, parasite or virus in culture", "assay_type": "cell-based", "conditions": "16 h"}, "E. coli CCUG31246 [1]": {"system": "E. coli CCUG31246", "assay_type": "cell-based", "experimental": "MICs were performed under the same growth conditions used for mode of action analysis following the guidelines issued by the Clinical Laboratory Standardization Institute (CLSI) with slight modifications. Serial two-fold dilutions of the peptides were prepared in 1:10 BHI in a sterile 96-well plate and subsequently inoculated with 5 × 10^5 CFU/mL of E. coli CCUG31246. […] The following MICs were obtained: C3: 512 μg/mL, L3: 64 μg/mL, and L3-K: 128 μg/mL. These concentrations were used for all mechanistic experiments. Polymyxin B was used as a positive control in all assays at a final concentration of 10 μg/mL."}, "C. albicans": {"system": "C. albicans", "test": "microbe, parasite or virus in culture", "assay_type": "cell-based", "conditions": "16 h"}, "[2]": {"conditions": "37 °C, RP-HPLC", "experimental": "Peptide stability in serum is another limiting factor for AMPs as novel antibiotics.[30]\nPeptide serum stability was performed according to D́Aloisio et al.[30] and Chen et al.[51] with some minor modifications. The serum stability was investigated using human serum (Sigma-Aldrich) from Human male AB plasma, USA origin, sterile-filtered. 250 μL serum was temperature-equilibrated at 37 °C and 100 μL aqueous peptide solution (L2: 1 mM; L3: 0.9 mM; L3-K: 0.7 mM; and C3: 0.5 mM) was added. RP-HPLC was measured at time intervals of 0, 0.5, 1, 4, and 24 h. For RP-HPLC samples, 30 μL of peptide solution was taken, 7 μL of Fmoc-Gly solution (4 mM) was added, and 2 μL of the sample was injected to HPLC. […]\nFigure S 133. RP-HPLC chromatogram (gradient from 10 to 90% acetonitrile in water over 10 min at 2\nml/min, detection at 254 nm) of peptides tested for serum stability. A) peptide L2 B) peptide L3. C)\n(1 picture or pasted object on this page, not shown here)"}, "[3]": {"system": "hepatoblastoma (HepG2) cells", "assay_type": "cell-based, human", "experimental": "(§1) To confirm the peptide selectivity toward bacteria cells, cytotoxicity assays of synthesized peptides L2, L3, L3-K, and C3 against human embryonic kidney (HEK) and hepatoblastoma (HepG2) were performed (Figure 4). The cell viability was assessed using resazurin 24 h post peptide exposure. The line at 70% cell viability marks out the threshold for cytotoxic potential compared to the negative control.\n(§2) Figure 4 Cell viability assessment using the resazurin assay 24 h post peptide exposure: (a) HepG2 and (b) HEK cells were treated with various concentrations of the peptides C3, L3, L3-K, and L2. Triton-X was used as a positive control. Cells cultured in pure cell media were used as negative controls and were considered to have 100% cell viability. The line represents the threshold for cytotoxicity level of 70% of cell viability compared to the negative control. Data are presented as the mean ± SD of three biological replicates of the HepG2 cells and the mean ± SD of two biological replicates of the HEK cells.\n(§3) Cytotoxicity against human embryonic kidney (HEK) and hepatoblastoma (HepG2) cell lines was assessed. Cells were grown to an initial seeding density of 10 000 cells per well. Metabolic activity was determined in a resazurin-based assay. HEK and HepG2 cells were exposed to four different concentrations of the peptides for 24 h. Treatment with Triton X-100 at 1% v/v was used as a positive control. Following this exposure period, the cells were treated with resazurin at a final concentration of 0.015 mg/mL for 3 h. The metabolic activity was then determined in an resazurin-based assay. The fluorescence intensities were quantified in a Hidex Sense microplate reader using an excitation wavelength of 544 nm and an emission wavelength of 590 nm."}, "[4]": {"system": "human embryonic kidney (HEK) cells", "assay_type": "cell-based", "experimental": "as §1, §2, §3"}, "[5]": {"parameters": "method as in PMID 20518462", "conditions": "nitrotyrosine side chain; cited from earlier work"}, "[6]": {"system": "Escherichia coli (CCUG 31246)", "test": "Minimum microbicidal concentration (MMC99) assay", "assay_type": "cell-based, E. coli", "conditions": "BHI diluted 1/100, 37 °C, median, n = 3", "experimental": "The microbicidal activity of the synthetic peptides was assessed against S. aureus (ATCC 12600; American Type Culture Collection, Manassas, VA, USA), Escherichia coli (CCUG 31246; Culture Collection, University of Gothenburg, Sweden), and Candida albicans (ATCC 64549/CCUG31028) using an MMC assay, as described previously by […] et al. (specific details in Supporting Information, pages 10, 11).[28] The assay was performed in BHI diluted 1/100 (BHI100). […] page 11: Table S5. Energy and structural ensembles of synthesized peptides. […] Energy -3887.06 -3620.88 -4968.42 -2163.76 -2646.75 Van der Waals solv. Energy 117.32 91.57 183.20 -88.88 -139.89 Mean RMSD* (Å), mean±SD […] Heavy atoms 1.87 ± 0.33 1.77 ± 0.50 0.98 ± 0.34 0.63 ±0.22 2.88 ±0.62 MMC99 activity including salt stability measurements Antimicrobial activity of L2 and L3 in the presence of NaCl. 1Table S6. Peptide MMC99 (μg/ml) sin NaCl S. aureus E.coli C. albicans (mM) 2[…] 0 50 25 25 85 - - - - - - >200 >200 >200 150 - - - - - - >200 >200 >200 3L 0 12.5 12.5 25 12,5 6.3 6.3 12.5 6.3 12.5 […] 150 >400 >400 (-)2 >400 >400 >400 >200 >200 >200 […] or 150 mM NaCl. L2 and L3 were serially diluted in twofold steps with a starting dilution of 200 μg/ml […] All sample dilutions were run in duplicates (L2) or triplicates (L3). 2 The growth of S. aureus at 24 h in BHI 100 with 85 or 150 mM NaCl was reduced. Minimum microbicidal concentration (MMC), killing 99% of the inoculum. All microorganisms were cultured in brain-heart infusion broth (BHI) overnight on a shaker at 37°C. The cultures were thereafter transferred to fresh BHI broth in volumes constituting 10% of total, and incubated for an additional 2 h to reach exponential growth phase. The bacterial cultures were washed once in BHI diluted 1/100 (BHI100), followed by resuspension in BHI100. The cell suspensions were diluted to a density of […] (bacteria) or 2x10^7 CFU/ml (yeast), as estimated by optical density measurement at 590 nm. […] Serum stability Figure S 133. […] A) peptide L2 B) peptide L3. C) peptide L3-K. D) peptide C3."}, "E. coli CCUG31246 [7]": {"system": "E. coli CCUG31246", "test": "Bacterial cytological profiling (DAPI, FM4-64, phase contrast)", "assay_type": "cell-based", "conditions": "polymyxin B 10 μg/mL", "experimental": "To gain insight into the peptides’ antimicrobial mechanisms, bacterial cytological profiling was performed. This live-cell imaging method makes use of different fluorescent dyes and protein fusions together with phase contrast microscopy to assess the phenotype of bacterial cells after antibiotic treatment.[33] Single-cell analysis then gives insight into the extent and population heterogeneity of the observed phenotypic effects. In this study, we used the DNA dye DAPI and the membrane dye FM4-64 and analyzed the effects of the compounds on cell length, nucleoid compaction, and membrane morphology (Figures 6 and S15). […] In the preparation of mechanistic studies, MICs were determined. […]\nBacterial cytological profiling was performed according to Wenzel et al.[34] […] Stained samples were spotted on 1.2% agarose films, sealed with a gene frame, and immediately imaged using a Nikon Eclipse Ti2 inverted fluorescence live-cell imaging system equipped with a CFI Plan Apochromat DM Lambda 100X Oil objective (N.A. = 1.45 and W.D. = 0.13 mm), a Photometrics, PRIME BSI camera, a Lumencor Sola SE II FISH 365 light source, and an Okolab temperature incubation chamber. Images were obtained using the NIS elements AR software version 5.21.03 and were processed and analyzed with ImageJ.[53] Quantification of microscopy images was performed using the ImageJ plugins ObjectJ[54] and MicrobeJ.[55] […]"}, "E. coli CCUG31246 [8]": {"system": "E. coli CCUG31246", "test": "Propidium iodide staining (pore formation)", "assay_type": "cell-based", "conditions": "1× MIC of peptide, polymyxin B 10 μg/mL; 10 and 60 min", "experimental": "Due to the overall similarity of the peptides’ cytological profiles to that of polymyxin B, we further tested their ability to form pores in the cell membrane. To this end, we used the fluorescence probe propidium iodide, which cannot cross intact membranes but can enter cells through pores of sufficient size.[39]\nPore formation was investigated with the fluorescence dye propidium iodide as described previously[56] with minor modifications. E. coli CCUG31246 was grown to an OD600 of 0.3 and subsequently treated with different peptides for 10 and 60 min. Samples were stained with 1 μg/mL propidium iodide for 15 min (added 5 min before adding antibiotics for the 10 min time point and after 45 min of antibiotic treatment for the 60 min time point), spotted on 1.2% agarose films, and sealed with a gene frame. Microscopy was performed as described above. The fluorescence intensity of the different samples was analyzed with MicrobeJ. For detection of bacterial cells from phase contrast images, parameters were set to an area of 1.5-max, length of 1-max, width 0.5–2.5, curvature 0–1.5, and an angularity of 0–0.5. Fluorescence intensity parameters were set to an area of 1.5-max, length of 1-max, and width 0.5–2.5. All other parameters remained at default settings."}, "E. coli CCUG31246 [9]": {"system": "E. coli CCUG31246", "test": "DiSC(3)5 microscopy (membrane potential)", "assay_type": "cell-based", "conditions": "1× MIC of peptide, polymyxin B 10 μg/mL; 10 min; 0.5 μM DiSC(3)5", "source_text": "Propidium iodide is a large organic molecule that is not suitable to detect smaller ion-conducting pores or channels induced by antimicrobials. To assess whether the peptides may form smaller membrane pores sufficient for the passage of ions, we tested their effects on the membrane potential using the fluorescence probe DiSC(3)5.[40] This dye accumulates in the cell membrane in a membrane potential-dependent manner and disassociates, when the membrane potential is dissipated. […] This effect can be clearly seen with polymyxin B (Figure 7b).\nThe membrane potential of E. coli CCUG31246 and E. coli MC4100 carrying pABCON2-fhuA ΔC/Δ4L was measured by DiSC(3)5 microscopy according to ref. ([40]) with minor modifications. Cells were grown in 1:10 BHI containing 50 μg/mL bovine serum albumin to an OD600 of 0.3 prior to antibiotic treatment with the respective peptides for 10 and 60 min. Samples were stained with 0.5 μM DiSC(3)5 for 15 min (added 5 min before adding antibiotics for the 10 min time point and after 45 min of antibiotic treatment for the 60 min time point). Stained samples were spotted on 1.2% agarose, sealed with a gene frame, and imaged immediately. Microscopy was performed as described above, and fluorescence intensity was analyzed with the same parameters used for propidium iodide detection."}}, "note": "Read-outs that look alike come from different tables or passages of the source. Square brackets hold non-standard residues; d marks the D form. Peptide text beside a SMILES is read from it. Orn = NCCC[C@H](N)C(=O)O", "data": [{"compound": "CC(C)[C@@H](NC(=O)[C@H](CCCN)NC(=O)[C@@H](NC(=O)[C@H](CCCN)NC(=O)[C@H](Cc1c[nH]c2ccccc12)NC(=O)[C@@H](C)NC(=O)[C@H](NC(=O)[C@@H](C)N)C(C)C)[C@@H](C)O)C(=O)N[C@@H](CCCCN)C(N)=O", "note": "[L2] (H-[dA][dV][dA]W[Orn]T[Orn][dV]K-NH2)", "values": [{"measurement": "S. aureus MIC", "setting": "S. aureus", "result": ">512", "unit": "µg/mL"}, {"measurement": "E. coli MIC", "setting": "E. coli CCUG31246 [1]; CCUG31246, 16 h", "result": ">512", "unit": "µg/mL"}, {"measurement": "C. albicans MIC", "setting": "C. albicans", "result": ">512", "unit": "µg/mL"}, {"measurement": "stability in human serum", "setting": "[2]; human serum from male AB plasma, 250 μL serum + 100 μL aqueous peptide solution (L2 1 mM; L3 0.9 mM; L3-K 0.7 mM; C3 0.5 mM), 0, 0.5, 1, 4, 24 h, Fmoc-Gly internal standard", "result": "stable after 24 h"}, {"measurement": "additional peaks / shoulder in chromatogram after 24 h in serum, total volume percentage", "setting": "[2]; human serum, 24 h, detection at 254 nm", "result": 0.4, "unit": "%"}, {"measurement": "cytotoxicity, cell viability HepG2", "setting": "[3]", "result": "no cytotoxicity at any tested concentration"}, {"measurement": "cytotoxicity, cell viability HEK", "setting": "[4]", "result": "no cytotoxicity at any tested concentration"}]}, {"compound": "N[C@@H](Cc1ccc(O)c([N+](=O)[O-])c1)C(=O)O", "note": "[Y-NO2]", "values": [{"measurement": "pKa value", "setting": "[5]", "result": 7.1}]}, {"compound": "polymyxin B [PolB, reference compound]", "values": [{"measurement": "E. coli MMC99 2 h", "setting": "[6]; 2 h", "result": "<1.6", "unit": "µg/mL"}, {"measurement": "E. coli MMC99 6 h", "setting": "[6]; 6 h", "result": "<1.6", "unit": "µg/mL"}, {"measurement": "E. coli MMC99 24 h", "setting": "[6]; 24 h", "result": "<1.6", "unit": "µg/mL"}, {"measurement": "E. coli MIC", "setting": "E. coli CCUG31246 [1]; 1:10 BHI, 5 × 10^5 CFU/mL, 37 °C, 16 h, highest concentration 512 μg/mL, median, n = 3", "result": 2.3, "unit": "µg/mL"}, {"measurement": "cells with unstained (reduced FM4-64 membrane stain) phenotype after 10 min", "setting": "E. coli CCUG31246 [7]", "result": "over 90%"}, {"measurement": "propidium iodide uptake", "setting": "E. coli CCUG31246 [8]", "result": "near-instantaneous uptake of the dye throughout the bacterial population"}, {"measurement": "membrane potential, DiSC(3)5 fluorescence, 10 min", "setting": "E. coli CCUG31246 [9]", "result": "clear and immediate reduction in the DiSC(3)5 fluorescence intensity"}]}]}
